Measured values: patent publication US11078165B2 (priority 2017, dated 2021)
Values after ≈ are worked out from the molar mass of the structure shown. Read-outs that look alike come from different tables or passages of the source.

Legend:
[1] = system: extracellular oxygen consumption; experiment: Oxygen consumption rate; type: cell-based
IMVs of M. phlei = details: reported [1], read-out: IC50, ATP synthesis; cited from earlier work
M. bovis BCG = experiment: microbe, parasite or virus in culture; type: cell-based, Mycobacterium bovis; details: for ATP synthesis (luminescence): FIG. 3C; for IC50: Mycobacterium tuberculosis variant bovis BCG, BCG, FIG. 3D
M. smegmatis mc^2 155 = experiment: Minimum inhibitory concentration, broth micro dilution; type: cell-based, Mycobacterium smegmatis; details: Mycolicibacterium smegmatis, MC^2155; M. smegmatis growth, 24 h; read-out: MIC50 [μM], bacterial growth
[2] = biological target: F-ATP synthase of inverted membrane vesicles (IMV) of M. smegmatis; experiment: ATP synthesis assay with inverted membrane vesicles; details: read-out: IC50 [μM], effect on ATP synthesis, IMVs of M. smegmatis
[3] = Mouse liver microsome stability; type: in vitro ADME; details: for half-life: mouse, liver microsomes

Sequence of F-ATP synthase of inverted membrane vesicles (IMV) of M. smegmatis (A0R203 whole entry): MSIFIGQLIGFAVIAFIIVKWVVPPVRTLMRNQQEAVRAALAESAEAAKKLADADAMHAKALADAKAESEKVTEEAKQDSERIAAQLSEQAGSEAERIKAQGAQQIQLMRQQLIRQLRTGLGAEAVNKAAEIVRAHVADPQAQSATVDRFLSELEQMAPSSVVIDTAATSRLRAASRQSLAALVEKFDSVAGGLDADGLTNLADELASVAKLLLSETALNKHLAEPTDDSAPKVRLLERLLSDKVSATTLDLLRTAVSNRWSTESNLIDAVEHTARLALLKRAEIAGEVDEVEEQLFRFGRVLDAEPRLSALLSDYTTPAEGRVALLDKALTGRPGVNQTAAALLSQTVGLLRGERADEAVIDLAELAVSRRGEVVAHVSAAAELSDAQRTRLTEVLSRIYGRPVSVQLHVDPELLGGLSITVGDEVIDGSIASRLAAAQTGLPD
Sequence of F-ATP synthase of inverted membrane vesicles (IMV) of M. smegmatis (A0R1Z9 whole entry, further chain): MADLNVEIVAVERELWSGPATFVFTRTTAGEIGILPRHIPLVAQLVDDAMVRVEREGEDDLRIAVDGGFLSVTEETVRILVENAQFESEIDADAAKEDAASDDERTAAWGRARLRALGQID
Sequence of F-ATP synthase of inverted membrane vesicles (IMV) of M. smegmatis (A0R200 whole entry, further chain): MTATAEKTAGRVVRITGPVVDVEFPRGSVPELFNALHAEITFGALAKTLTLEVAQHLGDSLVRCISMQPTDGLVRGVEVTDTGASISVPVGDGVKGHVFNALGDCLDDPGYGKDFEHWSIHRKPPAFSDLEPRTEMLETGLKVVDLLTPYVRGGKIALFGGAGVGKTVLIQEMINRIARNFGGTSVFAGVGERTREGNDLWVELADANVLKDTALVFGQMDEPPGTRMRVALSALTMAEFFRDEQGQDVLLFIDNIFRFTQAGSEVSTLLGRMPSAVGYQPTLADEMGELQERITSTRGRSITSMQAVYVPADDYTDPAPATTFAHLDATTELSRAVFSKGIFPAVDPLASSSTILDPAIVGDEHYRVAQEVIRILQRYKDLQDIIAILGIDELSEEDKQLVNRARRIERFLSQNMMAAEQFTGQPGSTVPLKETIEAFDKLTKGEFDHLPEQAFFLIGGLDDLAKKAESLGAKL
Sequence of F-ATP synthase of inverted membrane vesicles (IMV) of M. smegmatis (A0R201 whole entry, further chain): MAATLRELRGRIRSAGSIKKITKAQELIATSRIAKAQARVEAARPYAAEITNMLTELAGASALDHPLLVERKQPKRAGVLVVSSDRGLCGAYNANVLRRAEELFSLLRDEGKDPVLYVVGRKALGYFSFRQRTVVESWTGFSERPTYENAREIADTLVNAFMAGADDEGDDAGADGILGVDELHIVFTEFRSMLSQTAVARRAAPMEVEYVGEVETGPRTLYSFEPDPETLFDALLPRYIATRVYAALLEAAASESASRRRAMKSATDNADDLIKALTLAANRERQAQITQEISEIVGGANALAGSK
Sequence of F-ATP synthase of inverted membrane vesicles (IMV) of M. smegmatis (A0R202 whole entry, further chain): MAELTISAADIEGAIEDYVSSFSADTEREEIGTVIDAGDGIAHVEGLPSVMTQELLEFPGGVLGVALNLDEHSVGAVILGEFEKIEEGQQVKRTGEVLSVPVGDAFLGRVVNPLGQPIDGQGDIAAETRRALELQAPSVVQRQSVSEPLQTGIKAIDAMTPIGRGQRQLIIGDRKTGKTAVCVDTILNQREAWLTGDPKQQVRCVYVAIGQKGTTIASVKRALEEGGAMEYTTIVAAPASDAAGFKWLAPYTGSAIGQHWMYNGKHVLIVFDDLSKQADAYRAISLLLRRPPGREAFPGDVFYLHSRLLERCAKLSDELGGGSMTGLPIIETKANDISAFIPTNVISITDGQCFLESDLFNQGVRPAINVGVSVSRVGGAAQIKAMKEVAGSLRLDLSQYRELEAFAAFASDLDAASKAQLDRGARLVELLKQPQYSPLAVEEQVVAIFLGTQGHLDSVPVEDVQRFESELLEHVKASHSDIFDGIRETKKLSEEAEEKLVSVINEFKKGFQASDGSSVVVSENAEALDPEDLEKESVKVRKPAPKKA

Row | Compound | MIC50 (M. smegmatis mc^2 155) [µM] | melting point [°C] | IC50 [2] [µM] | further results
1 | COc1nc2ccc(Br)cc2cc1[C@@H](c1ccccc1)[C@@](O)(CCN(C)C)c1cccc2ccccc12 [BDQ, 1-(6-bromo-2-methoxy-quinolin-3-yl)-4-dimethylamino-2-naphthalen-1-yl-1-phenyl-butan-2-ol] | – | – | – | concentration inhibiting extracellular oxygen consumption ([1]; BDQ alone): about 500 nM; concentration needed for similar inhibition of oxygen consumption ([1]; BDQ in combination with 40 μM of cpd 6): 50 nm; IC50 (IMVs of M. phlei): 20 to 25 nM; ATP synthesis (luminescence) (M. bovis BCG; 12.5 nM BDQ in the presence of 37.5 μM of cpd 6): 6.5×10^3 RLU; ATP synthesis (luminescence) (M. bovis BCG; BDQ alone at 200 nM, drug-free 3.7×10^4 RLU): 8×10^3 RLU; IC50 (M. bovis BCG; read-out: IC50 value of BDQ, BDQ alone): 42 nM; IC50 (M. bovis BCG; read-out: IC50 value of BDQ, in combination with cpd 6): 2.36 nM
2 | CCNc1cc(C)nc(Nc2ccc(NC(=O)c3cccc(F)c3)cc2)n1 [F U Et, N-(4-((4-(ethylamino)-6-methylpyrimidin-2-yl)amino)phenyl)-3-fluorobenzamide] | 18.7 ± 1.25 (≈ 6.84 µg/mL) | 259 to 263 | 0.26 ± 0.05 | –
3 | CCNc1cc(C)nc(Nc2ccc(NC(=O)c3ccc(OC)cc3)cc2)n1 [4OMe U Et, N-(4-((4-(ethylamino)-6-methylpyrimidin-2-yl)amino)phenyl)-4-methoxybenzamide] | 17.3 ± 2.26 (≈ 6.52 µg/mL) | 285 to 288 | 0.69 ± 0.06 | whole cell ATP synthesis inhibition versus drug free control (M. bovis BCG; analog in combination with BDQ, FIG. 6A, 6B): significant increase in the inhibition
4 | CCNc1ccnc(Nc2ccc(NC(=O)c3cccc(Br)c3)cc2)n1 [Br desMe, 3-bromo-N-(4-((4-(ethylamino)pyrimidin-2-yl)amino)phenyl)benzamide] | 16.8 ± 2.6 (≈ 6.93 µg/mL) | 229 to 231 | 1.03 ± 0.25 | –
5 | CCc1nc2ccc(Cl)cn2c1C(=O)NCc1ccc(N2CCC(c3ccc(OC(F)(F)F)cc3)CC2)cc1 [Q203, 6-chloro-2-ethyl-N-[[4-[4-[4-(trifluoromethoxy)phenyl]piperidin-1-yl]phenyl]methyl]imidazo[1,2-a]pyridine-3-carboxamide] | – | – | – | concentration for complete inhibition of oxygen consumption ([1]; Q203 in combination with 40 μM of cpd 6): 100 nM; effect of Q203 in the presence of cpd 6 (M. bovis BCG; ATP synthesis, FIG. 3E): additive effect
6 | CCNc1nc(Nc2ccc(NC(=O)c3cccc(Br)c3)cc2)ncc1C [Br T Et, 3-bromo-N-(4-((4-(ethylamino)-5-methylpyrimidin-2-yl)amino)phenyl)benzamide] | 12.3 ± 0.73 (≈ 5.25 µg/mL) | > 230 | 0.62 ± 0.08 | –
7 | CCNc1nc(Nc2ccc(NC(=O)c3ccccc3)cc2)ncc1C [H T Et, N-(4-((4-(ethylamino)-5-methylpyrimidin-2-yl)amino)phenyl)benzamide] | 39 ± 1.91 (≈ 13.5 µg/mL) | > 230 | 0.9 ± 0.06 | –
8 | CCOC(=O)CNc1cc(C)nc(Nc2ccc(NC(=O)c3cccc(Br)c3)cc2)n1 [Br Gly, ethyl (2-((4-(3-bromobenzamido)phenyl)amino)-6-methylpyrimidin-4-yl)glycinate] | 15.5 ± 1.52 (≈ 7.53 µg/mL) | > 230 | 2.01 ± 0.16 | –
9 | CCNc1cc(C)nc(Nc2ccc(NC(=O)c3cccc(Br)c3)cc2)n1 [Cpd 6, 3-bromo-N-(4-((4-(ethylamino)-6-methylpyrimidin-2-yl)amino)phenyl)benzamide] | – | – | – | microsomal CLint ([3]; mouse liver microsomes): 14.6 µL/min/mg; half-life ([3]; read-out: T½): 47.5 min; half-life ([3]; without NADPH, read-out: T½ w/o NADPH): 68 min
10 | CCNc1cc(C)nc(Nc2ccc(NC(=O)c3ccc(C)cc3)cc2)n1 [4Me U Et, N-(4-((4-(ethylamino)-6-methylpyrimidin-2-yl)amino)phenyl)-4-methylbenzamide] | 31.8 ± 7.8 (≈ 11.5 µg/mL) | 297 to 300 | 0.39 ± 0.02 | –
11 | CCNc1nc(Nc2ccc(NC(=O)c3cccc(F)c3)cc2)ncc1C [F T Et, N-(4-((4-(ethylamino)-5-methylpyrimidin-2-yl)amino)phenyl)-3-fluorobenzamide] | 43.5 ± 3.57 (≈ 15.9 µg/mL) | – | 0.92 ± 0.04 | –
12 | Cc1cc(NC(C)C)nc(Nc2ccc(NC(=O)c3cccc(Br)c3)cc2)n1 [Br iso, 3-bromo-N-(4-((4-(isopropylamino)-6-methylpyrimidin-2-yl)amino)phenyl)benzamide] | 50.1 ± 4.5 (≈ 22.1 µg/mL) | 183 to 185 | 2.69 ± 0.21 | –
13 | CCNc1cc(C)nc(Nc2ccc(NC(=O)c3cccc(O)c3)cc2)n1 [3OH U Et, N-(4-((4-(ethylamino)-6-methylpyrimidin-2-yl)amino)phenyl)-3-hydroxybenzamide] | 79.6 ± 9.13 (≈ 28.9 µg/mL) | 283 to 285 | 1.16 ± 0.09 | –
14 | Cc1cc(NCCO)nc(Nc2ccc(NC(=O)c3cccc(Br)c3)cc2)n1 [Br EtOH] | 19 ± 1.5 (≈ 8.41 µg/mL) | 237 to 241 | 0.42 ± 0.03 | –
15 | CCNc1cc(C)nc(Nc2ccc(NC(=O)c3ccccc3)cc2)n1 [H U Et, N-(4-((4-(ethylamino)-6-methylpyrimidin-2-yl)amino)phenyl)benzamide] | 26.9 ± 1.39 (≈ 9.36 µg/mL) | 225 to 226 | 1.65 ± 0.16 | –
16 | CCNc1nc(C)cc(Nc2ccc(NC(=O)c3cccc(Br)c3)cc2)n1 [Br U Et iso (Cpd 6 iso), 3-bromo-N-(4-((2-(ethylamino)-6-methylpyrimidin-4-yl)amino)phenyl)benzamide] | 20.8 ± 1.9 (≈ 8.88 µg/mL) | 260 to 264 | 0.38 ± 0.03 | –
17 | CNc1cc(C)nc(Nc2ccc(NC(=O)c3cccc(Br)c3)cc2)n1 [Br Me, 3-bromo-N-(4-((4-methyl-6-(methylamino)pyrimidin-2-yl)amino)phenyl)benzamide] | 12.4 ± 0.56 (≈ 5.11 µg/mL) | 301 to 303 | 0.39 ± 0.06 | –
